Experiment: wn = mass fraction of the nth substance listed
Settings: 101 kPa, Liquid, w1 = 0.321; for electrical conductivity: Phywe conductometer; for mass density: Vibrating tube method

CCN(CC)CC [triethylamine] + O
Settings | electrical conductivity [S/m] | mass density [kg/m3]
284.65 K | 0.04696 | 935.6
285.14 K | 0.04816 | 935.2
285.64 K | 0.04926 | 934.7
286.14 K | 0.05046 | 934.2
286.65 K | 0.05156 | 933.7
287.14 K | 0.05276 | 933.1
287.65 K | 0.05396 | 932.5
288.09 K | 0.05496 | 932
288.59 K | 0.05616 | 931.4
288.89 K | 0.05676 | 931
289.14 K | 0.05736 | 930.7
289.42 K | 0.05806 | 930.3
289.65 K | 0.05856 | 930
289.91 K | 0.05916 | 929.6
290.15 K | 0.05976 | 929.3
290.33 K | 0.06026 | 929
290.44 K | 0.06056 | 928.9
290.55 K | 0.06076 | 928.7
290.65 K | 0.06106 | 928.6
290.75 K | 0.06136 | 928.4
290.84 K | 0.06166 | 928.3
290.94 K | 0.06196 | 928.2
291.05 K | 0.06226 | 928
291.15 K | 0.06256 | 927.8
291.19 K | 0.06276 | 927.8
291.24 K | 0.06286 | 927.7
291.29 K | 0.06306 | 927.6
291.34 K | 0.06326 | 927.5
291.39 K | 0.06346 | 927.5

— the NIST ThermoML archive (doi:10.1016/j.fluid.2011.03.031)
